According to patent US9120756B2, “Substituted phenylureas and phenylamides as vanilloid receptor ligands” (Gruenenthal GmbH, priority 2009, dated 2015):

What was measured:
Format in all cases: cell-based
hVR1 [1] = target: T1, hVR1 (Homo sapiens (Human), UniProt Q8NER1); test: FLIPR assay hVR1, after pH stimulus; set-up: key to IC50 (human being) hVR1 pH: result in words (NE / AG): AG=agonist; pAG=partial agonist; NE=no effect; conditions: for inhibition at 10 µM: read-out: IC50 (human being) hVR1 pH: inhibition (as a percentage) @ 10 μM, inhibition determined at 10 μM
Method: In this assay, the influx of Ca^2+ through the channel is quantified with the aid of a Ca^2+-sensitive dye (type Fluo-4, Molecular Probes Europe BV, Leiden, the Netherlands) in a fluorescent imaging plate reader (FLIPR, Molecular Devices, Sunnyvale, USA). Chinese hamster ovary cells (CHO K1 cells, European Collection of Cell Cultures (ECACC) United Kingdom) are stably transfected with the VR1 gene. For functional testing, these cells are plated out on poly-D-lysine-coated black 96-well plates having a clear base (BD Biosciences, Heidelberg, Germany) at a density of 25,000 cells/well. […] Subsequently, the plates are washed three times with HBSS buffer and after further incubation for 15 minutes at RT used for Ca^2+ measurement in a FLIPR assay. […] Quantification is carried out by measuring the highest fluorescence intensity (FC, fluorescence counts) over time. The FLIPR protocol consists of 2 substance additions. […] Desensitising agonists and antagonists led to suppression of the Ca^2+ influx. […] Ki values for the test substances were obtained by conversion by means of the Cheng-Prusoff equation (Cheng, Prusoff; Biochem. Pharmacol. 22, 3099-3108, 1973).

hVR1 [2] = target: T1, hVR1; test: FLIPR Ca2+ influx assay on CHO K1 cells transfected with the VR1 gene, capsaicin stimulus (method II); set-up: key to Ki (human being) Cap: result in words (NE / AG): AG=agonist; pAG=partial agonist; NE=no effect; conditions: for inhibition at 5 µM: CHO-K1, read-out: Ki (human being) Cap column: inhibition (as a percentage) @ 5 μM, capsaicin, inhibition determined at 5 μM; for Ki: capsaicin (Cap), read-out: Ki (human being) [nM] Cap
Text: In the process, the Ca^2+ influx is quantified in the FLIPR assay with the aid of a Ca^2+-sensitive dye (type Fluo-4, Molecular Probes Europe BV, Leiden, the Netherlands) in a fluorescent imaging plate reader (FLIPR, Molecular Devices, Sunnyvale, USA), as described hereinafter.
(§1) The agonistic or antagonistic effect of the substances to be tested on the vanilloid receptor 1 (VR1) can also be determined using the following assay. In this assay, the influx of Ca^2+ through the channel is quantified with the aid of a Ca^2+-sensitive dye (type Fluo-4, Molecular Probes Europe BV, Leiden, the Netherlands) in a fluorescent imaging plate reader (FLIPR, Molecular Devices, Sunnyvale, USA).
(§2) Chinese hamster ovary cells (CHO K1 cells, European Collection of Cell Cultures (ECACC) United Kingdom) are stably transfected with the VR1 gene. For functional testing, these cells are plated out on poly-D-lysine-coated black 96-well plates having a clear base (BD Biosciences, Heidelberg, Germany) at a density of 25,000 cells/well. The cells are incubated overnight at 37° C. and 5% CO2 in a culture medium (Ham's F12 nutrient mixture, 10% by volume of FCS (foetal calf serum), 18 μg/ml of L-proline). The next day the cells are incubated with Fluo-4 (Fluo-4 2 μM, 0.01% by volume of Pluronic F127, Molecular Probes in HBSS (Hank's buffered saline solution), Gibco Invitrogen GmbH, Karlsruhe, Germany) for 30 minutes at 37° C. Subsequently, the plates are washed three times with HBSS buffer and after further incubation for 15 minutes at RT used for Ca^2+ measurement in a FLIPR assay. The Ca^2+-dependent fluorescence is measured before and after the addition of the substances to be tested (λex wavelength=488 nm, λem=540 nm). Quantification is carried out by measuring the highest fluorescence intensity (FC, fluorescence counts) over time.
The FLIPR protocol consists of 2 substance additions. First the compounds to be tested (10 μM) are pipetted onto the cells and the Ca^2+ influx is compared with the control (capsaicin 10 μM) (% activation based on the Ca^2+ signal after the addition of 10 μM of capsaicin). After 5 minutes' incubation, 100 nM of capsaicin are applied and the Ca^2+ influx is also determined.
(§3) Desensitising agonists and antagonists led to suppression of the Ca^2+ influx.
Starting from the percentage displacement caused by different concentrations of the compounds to be tested of general formula I, IC50 inhibitory concentrations which cause a 50-percent displacement of capsaicin were calculated. Ki values for the test substances were obtained by conversion by means of the Cheng-Prusoff equation (Cheng, Prusoff; Biochem. Pharmacol. 22, 3099-3108, 1973).

[3] = target: rat-species vanilloid receptor 1 (VR1/TRPV1) (Rattus norvegicus (Rat), UniProt O35433); test: FLIPR Ca2+ influx assay on rat dorsal root ganglia cells, capsaicin stimulus (method I); conditions: for inhibition at 5 µM: read-out: Ki (rat) Cap: inhibition (as a percentage) @ 5 μM, capsaicin, inhibition determined at 5 μM; for Ki: capsaicin (Cap)
Method: The agonistic or antagonistic effect of the substances to be tested on the rat-species vanilloid receptor 1 (VR1/TRPV1) can be determined using the following assay. In this assay, the influx of Ca^2+ through the receptor channel is quantified with the aid of a Ca^2+-sensitive dye (type Fluo-4, Molecular Probes Europe BV, Leiden, the Netherlands) in a fluorescent imaging plate reader (FLIPR, Molecular Devices, Sunnyvale, USA).
Complete medium: 50 ml HAMS F12 nutrient mixture (Gibco Invitrogen GmbH, Karlsruhe, Germany) with
10% by volume of FCS (foetal calf serum, Gibco Invitrogen GmbH, Karlsruhe, Germany, heat-inactivated);
2 mM L-glutamine (Sigma, Munich, Germany);
1% by weight of AA solution (antibiotic/antimyotic solution, PAA, Pasching, Austria) and 25 ng/ml NGF medium (2.5 S, Gibco Invitrogen GmbH, Karlsruhe, Germany)
Cell culture plate: Poly-D-lysine-coated, black 96-well plates having a clear base (96-well black/clear plate, BD Biosciences, Heidelberg, Germany) are additionally coated with laminin (Gibco Invitrogen GmbH, Karlsruhe, Germany), the laminin being diluted with PBS (Ca—Mg-free PBS, Gibco Invitrogen GmbH, Karlsruhe, Germany) to a concentration of 100 μg/ml. Aliquots having a laminin concentration of 100 μg/ml are removed and stored at −20° C. The aliquots are diluted with PBS in a ratio of 1:10 to 10 μg/ml of laminin and respectively 50 μL of the solution are pipetted into a recess in the cell culture plate. The cell culture plates are incubated for at least two hours at 37° C., the excess solution is removed by suction and the recesses are each washed twice with PBS. The coated cell culture plates are stored with excess PBS which is not removed until just before the feeding of the cells.
The vertebral column is removed from decapitated rats and placed immediately into cold HBSS buffer (Hank's buffered saline solution, Gibco Invitrogen GmbH, Karlsruhe, Germany), i.e. buffer located in an ice bath, mixed with 1% by volume (percent by volume) of an AA solution (antibiotic/antimyotic solution, PAA, Pasching, Austria). The vertebral column is cut longitudinally and removed together with fasciae from the vertebral canal. Subsequently, the dorsal root ganglia (DRG) are removed and again stored in cold HBSS buffer mixed with 1% by volume of an AA solution. The DRG, from which all blood remnants and spinal nerves have been removed, are transferred in each case to 500 μL of cold type 2 collagenase (PAA, Pasching, Austria) and incubated for 35 minutes at 37° C. After the addition of 2.5% by volume of trypsin (PAA, Pasching, Austria), incubation is continued for 10 minutes at 37° C. After complete incubation, the enzyme solution is carefully pipetted off and 500 μL of complete medium are added to each of the remaining DRG. […] The contents of each Falcon tube are respectively filtered through a 70 μm Falcon filter element and centrifuged for 10 minutes at 1,200 rpm and RT. The resulting pellet is respectively taken up in 250 μL of complete medium and the cell count is determined.
The number of cells in the suspension is set to 3×10^5 per ml and 150 μL of this suspension are in each case introduced into a recess in the cell culture plates coated as described hereinbefore. […] Subsequently, the cells are loaded with 2 μM of Fluo-4 and 0.01% by volume of Pluronic F127 (Molecular Probes Europe BV, Leiden, the Netherlands) in HBSS buffer (Hank's buffered saline solution, Gibco Invitrogen GmbH, Karlsruhe, Germany) for 30 min at 37° C., washed 3 times with HBSS buffer and after further incubation for 15 minutes at RT used for Ca^2+ measurement in a FLIPR assay. The Ca^2+-dependent fluorescence is in this case measured before and after the addition of substances (λex=488 nm, λem=540 nm). Quantification is carried out by measuring the highest fluorescence intensity (FC, fluorescence counts) over time.
The FLIPR protocol consists of 2 substance additions.

hVR1 [4] = target: T1, hVR1; test: FLIPR assay human VR1, 45° C. stimulus
Text: as §1, §2
The FLIPR protocol consists of 2 substance additions. […]
as §3
Ki values for the test substances were obtained by conversion by means of the Cheng-Prusoff equation (Cheng, Prusoff; Biochem. Pharmacol. 22, 3099-3108, 1973).

rat-species vanilloid receptor 1 (VR1/TRPV1), sequence (O35433 whole entry): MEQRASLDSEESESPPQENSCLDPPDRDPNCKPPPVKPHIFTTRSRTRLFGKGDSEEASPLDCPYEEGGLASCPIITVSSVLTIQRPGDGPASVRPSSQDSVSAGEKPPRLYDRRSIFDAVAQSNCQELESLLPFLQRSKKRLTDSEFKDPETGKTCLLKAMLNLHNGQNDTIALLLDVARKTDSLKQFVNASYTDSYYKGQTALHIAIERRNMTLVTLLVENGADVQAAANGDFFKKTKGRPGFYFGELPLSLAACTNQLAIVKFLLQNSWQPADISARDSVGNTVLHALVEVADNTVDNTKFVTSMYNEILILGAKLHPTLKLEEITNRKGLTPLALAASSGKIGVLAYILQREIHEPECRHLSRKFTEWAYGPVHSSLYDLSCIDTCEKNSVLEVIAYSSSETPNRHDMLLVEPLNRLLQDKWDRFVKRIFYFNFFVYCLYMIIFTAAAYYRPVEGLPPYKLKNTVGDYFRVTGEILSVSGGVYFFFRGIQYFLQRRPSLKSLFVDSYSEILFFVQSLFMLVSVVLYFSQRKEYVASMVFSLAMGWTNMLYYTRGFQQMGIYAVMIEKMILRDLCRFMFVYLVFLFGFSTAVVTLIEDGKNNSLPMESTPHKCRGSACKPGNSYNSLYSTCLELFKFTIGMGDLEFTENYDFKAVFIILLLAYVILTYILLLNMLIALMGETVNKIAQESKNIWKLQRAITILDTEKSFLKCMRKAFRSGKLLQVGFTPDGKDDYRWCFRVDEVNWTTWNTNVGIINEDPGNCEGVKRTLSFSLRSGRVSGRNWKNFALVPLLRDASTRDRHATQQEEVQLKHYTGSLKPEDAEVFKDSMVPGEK
T1 sequence (Q8NER1 whole entry): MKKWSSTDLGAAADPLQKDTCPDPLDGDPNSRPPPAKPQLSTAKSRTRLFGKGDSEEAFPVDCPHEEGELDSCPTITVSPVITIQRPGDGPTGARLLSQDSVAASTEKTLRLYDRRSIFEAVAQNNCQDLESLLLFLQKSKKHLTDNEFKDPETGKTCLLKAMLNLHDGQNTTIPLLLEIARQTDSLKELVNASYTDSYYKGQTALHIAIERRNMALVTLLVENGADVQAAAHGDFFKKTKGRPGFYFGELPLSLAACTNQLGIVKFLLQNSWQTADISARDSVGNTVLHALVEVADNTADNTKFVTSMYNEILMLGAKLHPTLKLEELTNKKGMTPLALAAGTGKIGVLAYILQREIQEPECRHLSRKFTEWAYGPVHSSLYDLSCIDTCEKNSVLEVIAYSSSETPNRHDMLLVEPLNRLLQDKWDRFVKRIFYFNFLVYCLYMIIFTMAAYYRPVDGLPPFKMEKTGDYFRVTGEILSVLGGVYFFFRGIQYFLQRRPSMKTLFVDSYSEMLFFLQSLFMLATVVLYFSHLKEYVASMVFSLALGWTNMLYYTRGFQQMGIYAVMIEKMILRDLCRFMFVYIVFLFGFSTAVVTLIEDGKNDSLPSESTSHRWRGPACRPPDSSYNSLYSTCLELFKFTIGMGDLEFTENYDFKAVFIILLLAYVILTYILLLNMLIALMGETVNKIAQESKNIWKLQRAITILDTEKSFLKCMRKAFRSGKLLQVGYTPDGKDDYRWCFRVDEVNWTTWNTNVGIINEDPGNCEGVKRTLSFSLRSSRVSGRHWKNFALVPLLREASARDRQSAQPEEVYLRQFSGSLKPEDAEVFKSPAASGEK

SMILES | IC50 (human being) hVR1 pH: result in words (NE / AG) (hVR1 [1]) | inhibition at 5 µM [3] [%] | inhibition at 10 µM (hVR1 [1]) [%] | Ki (hVR1 [2]) [nM] | Ki [3] [nM] | further results
C[C@H](C(=O)NCc1cc(C(C)(C)C)n[nH]1)c1ccc(NS(C)(=O)=O)c(F)c1 [Example 2, (S)-N-((3-tert-butyl-1H-pyrazol-5-yl)methyl)-2-(3-fluoro-4-(methylsulphonamido)phenyl)propanamide] | NE | 25 | – | – | – | Ki (human being) Cap: result in words (NE / AG) (hVR1 [2]; capsaicin): NE
C[C@H](C(=O)NCc1cc(C(C)(C)C)nn1C)c1ccc(NS(C)(=O)=O)c(F)c1 [Example 4, (S)-N-((3-tert-butyl-1-methyl-1H-pyrazol-5-yl)methyl)-2-(3-fluoro-4-(methylsulphonamido)phenyl)propanamide] | NE | 20 | – | – | – | inhibition at 5 µM (hVR1 [2]): 9%
CC(C(=O)NCc1cc(C(C)(C)C)nn1-c1ccc(F)c(Cl)c1)c1ccc(NS(C)(=O)=O)c(F)c1 (stereo not drawn) [Example 18, N-((3-tert-butyl-1-(3-chloro-4-fluorophenyl)-1H-pyrazol-5-yl)methyl)-2-(3-fluoro-4-(methylsulphonamido)phenyl)propanamide] | – | – | 31 | 0.5 | – | IC50 (hVR1 [4]; read-out: IC50 (human being) [nM], 45° C.): 7 nM
CC(C(=O)NCc1cc(C(C)(C)C)nn1-c1cccc(Cl)c1)c1ccc(NS(C)(=O)=O)c(F)c1 (stereo not drawn) [Example 16, N-((3-tert-butyl-1-(3-chlorophenyl)-1H-pyrazol-5-yl)methyl)-2-(3-fluoro-4-(methylsulphonamido)phenyl)propanamide] | NE | – | – | 0.3 | – | inhibition at 0.625 µM (hVR1 [4]; inhibition determined at 0.625 μM, read-out: IC50 (human being) 45° C. column: inhibition (as a percentage) @ 0.625 μM): 35%
CCCCCCn1nc(C(C)(C)C)cc1CNC(=O)[C@@H](C)c1ccc(NS(C)(=O)=O)c(F)c1 [Example 6, (S)-N-((3-tert-butyl-1-hexyl-1H-pyrazol-5-yl)methyl)-2-(3-fluoro-4-(methylsulphonamido)phenyl)propanamide] | – | – | 13 | 27.7 | 14.5 | –
Cc1ccc(/C=C/n2nc(C(C)(C)C)cc2CNC(=O)C(C)c2ccc(NS(C)(=O)=O)c(F)c2)cc1 (stereo not drawn) [Example 19, (E)-N-((3-tert-butyl-1-(4-methylstyryl)-1H-pyrazol-5-yl)methyl)-2-(3-fluoro-4-(methylsulphonamido)phenyl)propanamide] | NE | – | – | – | 819 | inhibition at 1 µM (hVR1 [2]; CHO-K1, read-out: Ki (human being) inhibition (as a percentage) @ 1 μM, capsaicin, inhibition determined at 1 μM): 44%
CC(C(=O)NCc1cc(C(C)(C)C)nn1C1CCCCC1)c1ccc(NS(C)(=O)=O)c(F)c1 (stereo not drawn) [Example 7, N-((3-tert-butyl-1-cyclohexyl-1H-pyrazol-5-yl)methyl)-2-(3-fluoro-4-(methylsulphonamido)phenyl)propanamide] | NE | – | – | 21.6 | 0.35 | –
CC(C(=O)NCc1cc(C(C)(C)C)nn1C)c1ccc(NS(C)(=O)=O)c(F)c1 (stereo not drawn) [Example 3, N-((3-tert-butyl-1-methyl-1H-pyrazol-5-yl)methyl)-2-(3-fluoro-4-(methylsulphonamido)phenyl)propanamide] | NE | 14 | – | – | – | inhibition at 5 µM (hVR1 [2]): 12%
C[C@H](C(=O)NCc1cc(C(C)(C)C)nn1-c1ccc(Cl)cc1)c1ccc(NS(C)(=O)=O)c(F)c1 [Example 15, (S)-N-((3-tert-butyl-1-(4-chlorophenyl)-1H-pyrazol-5-yl)methyl)-2-(3-fluoro-4-(methylsulphonamido)phenyl)propanamide] | – | – | – | 2.1 | 2.5 | inhibition at 5 µM (hVR1 [1]; read-out: IC50 (human being) hVR1 pH column: inhibition (as a percentage) @ 5 μM, inhibition determined at 5 μM): 14%
CC(C(=O)NCc1cc(C(C)(C)C)nn1-c1ccc(Cl)cc1)c1ccc(NS(C)(=O)=O)c(F)c1 (stereo not drawn) [Example 14, N-((3-tert-butyl-1-(4-chlorophenyl)-1H-pyrazol-5-yl)methyl)-2-(3-fluoro-4-(methylsulphonamido)phenyl)propanamide] | – | – | 25 | 3.7 | 7.2 | –
